Laboratory results taken from US11666608B2 (priority 2020, dated 2023).

System: neutrophils isolated from peripheral blood
Assay: Neutrophil activation by E. coli EVs, neutrophil elastase secretion (ELISA)
Format: cell-based
Conditions: human neutrophils treated with E. coli EVs and test substance 24 hours, FIG. 8
Protocol: Specifically, 10 mL of blood was collected in a tube containing an ACD solution, the blood was carefully added over 20 mL of Lymphoprep and centrifuged. After centrifugation, a red blood layer was collected and mixed with 12 mL of dextran, followed by standing at room temperature for 45 minutes. After layer separation, 40 mL of 1×HBSS was added to the supernatant and centrifuged again, and red blood cells were removed with autoclaved Millipore water, and then neutrophils were isolated using a neutrophil isolation kit (MACS). […] As a positive control drug, dexamethasone (Dex) was treated.

Structure (SMILES): C[C@@H]1C[C@H]2[C@@H]3CCC4=CC(=O)C=C[C@]4(C)[C@@]3(F)[C@@H](O)C[C@]2(C)[C@@]1(O)C(=O)CO [dexamethasone]
- secretion of NE (neutrophil elastase), neutrophil activation indicator: did not inhibit
